pIC50: −log10 of the molar value. Where a name gives a salt, the structure may show the parent alone.
Each compound was assayed against PDE10A (assay: Phosphodiesterase assay (TR-FRET, LANCE cAMP kit)). Conditions: PDE10A (BPS Bioscience) 200 pg/well, biotin-cAMP substrate, 60 min at room temperature.
Type: biochemical
Description: (§1) The PDE assay is based on the homogenous time-resolved fluorescence resonance energy transfer (TR-FRET) technology (LANCE® from Perkin Elmer). […] When there is PDE activity, resulting in the degradation of the cyclic nucleotide, the complex is not formed and a decrease in signal is observed.
(§2) The phosphodiesterase assay was developed using the LANCE® cAMP kit (PerkinElmer). The assay buffer contained HBSS with 5 mM HEPES, 0.1% BSA, and 1.5 mM MgCl2, pH 7.4. PDE10A (BPS Bioscience) was used at 200 pg/well (with a specific activity of 3200 pmole/min/μg with assay conditions: 10 mM Tris-HCl, pH7.4, 10 mM MgCl2, 1 mM MnCl2, 200 μM cAMP, 2.5 kU 5′ nucleotidase, 37° C., 20 min). […] Chemical compounds were dissolved in DMSO (final concentration 2% (v/v)).
(§3) In a 384-well plate, 2 μL inhibitor and 3 μL PDE were added to the well, followed by the addition of 5 μl substrate biotinylated cAMP (1:5). After 60 min incubation at room temperature, 10 μL of assay detection mixture was added to the assay plate. After 1 h at room temperature, the signal was measured on EnVision™ (Perkin Elmer).

pIC50 | Compound
9.92 | CCc1nc(O)c(Cc2ccc3oc4ccccc4c3c2)c2cc(OC)c(OC)cc12 [Compound 6, 4-(Dibenzo[b,d]furan-2-ylmethyl)-1-ethyl-6,7-dimethoxyisoquinolin-3-ol hydrochloride]

The compounds below were run against PDE10A (Homo sapiens, UniProt Q9Y233) (assay: Phosphodiesterase assay (TR-FRET, LANCE cAMP kit)). Conditions: PDE10A (BPS Bioscience) 200 pg/well, biotin-cAMP substrate, 60 min at room temperature.
Chain of PDE10A (Homo sapiens, UniProt Q9Y233) (Q9Y233 whole entry, looked up): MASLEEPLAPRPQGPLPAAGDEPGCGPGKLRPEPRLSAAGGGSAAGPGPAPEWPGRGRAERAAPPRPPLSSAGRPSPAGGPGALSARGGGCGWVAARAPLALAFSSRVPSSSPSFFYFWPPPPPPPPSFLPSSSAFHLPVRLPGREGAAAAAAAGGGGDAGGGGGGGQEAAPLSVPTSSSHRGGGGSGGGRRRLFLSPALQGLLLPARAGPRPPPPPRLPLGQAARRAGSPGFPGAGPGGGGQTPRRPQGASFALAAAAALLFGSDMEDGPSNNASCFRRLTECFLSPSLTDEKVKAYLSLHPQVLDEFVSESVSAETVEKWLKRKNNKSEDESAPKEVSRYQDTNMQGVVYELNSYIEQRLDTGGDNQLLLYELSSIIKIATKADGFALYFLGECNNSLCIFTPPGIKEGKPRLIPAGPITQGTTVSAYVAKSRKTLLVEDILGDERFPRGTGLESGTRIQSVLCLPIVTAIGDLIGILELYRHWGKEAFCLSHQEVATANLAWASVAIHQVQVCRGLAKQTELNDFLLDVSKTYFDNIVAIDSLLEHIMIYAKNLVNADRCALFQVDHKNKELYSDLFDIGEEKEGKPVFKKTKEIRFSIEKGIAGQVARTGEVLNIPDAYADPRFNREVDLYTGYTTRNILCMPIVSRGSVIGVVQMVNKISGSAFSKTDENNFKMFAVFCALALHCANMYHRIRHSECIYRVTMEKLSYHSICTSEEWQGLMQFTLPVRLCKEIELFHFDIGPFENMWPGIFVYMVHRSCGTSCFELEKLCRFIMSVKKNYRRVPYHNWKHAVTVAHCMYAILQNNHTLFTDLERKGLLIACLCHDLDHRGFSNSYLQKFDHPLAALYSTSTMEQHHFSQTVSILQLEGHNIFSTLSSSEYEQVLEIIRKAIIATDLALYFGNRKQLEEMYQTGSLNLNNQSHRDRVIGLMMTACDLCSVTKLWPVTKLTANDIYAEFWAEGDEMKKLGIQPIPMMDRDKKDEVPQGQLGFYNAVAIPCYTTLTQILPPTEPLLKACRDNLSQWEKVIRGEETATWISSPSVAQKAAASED
Type: biochemical
Description: as §1, §2, §3

pIC50 | Compound
7.89 | CCc1nc(O)c(Cc2cnc3cc(OC)ccc3c2)c2cc(OC)c(OC)cc12 [Compound 31, 1-ethyl-6,7-dimethoxy-4-((7-methoxyquinolin-3-yl)methyl)isoquinolin-3-ol dihydrochloride]
7.52 | CCc1nc(O)c(Cc2cc3cc(OC)ccc3nc2NCC(F)(F)F)c2cc(OC)c(OC)cc12 [Compound 45, 1-ethyl-6,7-dimethoxy-4-((6-methoxy-2-(2,2,2-trifluoroethylamino)quinolin-3-yl)methyl)isoquinolin-3-ol dihydrochloride]
7.96 | CCNc1nc2ccc(OC)cc2cc1Cc1c(O)nc(C(C)C)c2cc(OC)c(OC)cc12 [Compound 47, 4-((2-(ethylamino)-6-methoxyquinolin-3-yl)methyl)-1-isopropyl-6,7-dimethoxyisoquinolin-3-ol dihydrochloride]
8.34 | CCCc1nc(O)c(Cc2cc3cc(OCC)ccc3nc2NCC)c2cc(OC)c(OC)cc12 [Compound 49, 4-((6-ethoxy-2-(ethylamino)quinolin-3-yl)methyl)-6,7-dimethoxy-1-propylisoquinolin-3-ol dihydrochloride]
9.55 | CCCc1nc(O)c(Cc2cc3cc(OC)ccc3nc2NCC)c2cc(OC)c(OC)cc12 [Compound 50, 4-((2-(ethylamino)-6-methoxyquinolin-3-yl)methyl)-6,7-dimethoxy-1-propylisoquinolin-3-ol dihydrochloride]
7.26 | COc1ccc2nc(NCC(F)(F)F)c(Cc3c(O)nc(C(C)C)c4cc(OC)c(OC)cc34)cc2c1 [Compound 51, 1-isopropyl-6,7-dimethoxy-4-((6-methoxy-2-(2,2,2-trifluoroethylamino)quinolin-3-yl)methyl)isoquinolin-3-ol dihydrochloride]
8.82 | CCCNc1nc2ccc(OC)cc2cc1Cc1c(O)nc(CCC)c2cc(OC)c(OC)cc12 [Compound 52, 6,7-dimethoxy-4-((6-methoxy-2-(propylamino)quinolin-3-yl)methyl)-1-propylisoquinolin-3-ol dihydrochloride]
6.66 | CCNc1nc2ccc(OC)cc2cc1Cc1c(O)nc(CNS(C)(=O)=O)c2cc(OC)c(OC)cc12 [Compound 58, N-((4-((2-(ethylamino)-6-methoxyquinolin-3-yl)methyl)-3-hydroxy-6,7-dimethoxyisoquinolin-1-yl)methyl)methanesulfonamide dihydrochloride]
8.92 | CCCc1nc(O)c(Cc2cc3cc4c(cc3nc2NCC)OCO4)c2cc(OC)c(OC)cc12 [Compound 64, 4-((6-(ethylamino)-[1,3]dioxolo[4,5-g]quinolin-7-yl)methyl)-6,7-dimethoxy-1-propylisoquinolin-3-ol dihydrochloride]
8.70 | CCc1nc(O)c(Cc2cc3cc(OC)ccc3nc2NCCOC)c2cc(OC)c(OC)cc12 [Compound 77, 1-Ethyl-6,7-dimethoxy-4-((6-methoxy-2-(2-methoxyethylamino)quinolin-3-yl)methyl)isoquinolin-3-ol dihydrochloride]
7.06 | COc1cc2c(C(C)C)nc(O)c(Cc3cnc4ccccc4c3)c2cc1OC [Compound 79, 1-Isopropyl-6,7-dimethoxy-4-(quinolin-3-ylmethyl)isoquinolin-3-ol dihydrochloride]
8.49 | CCCc1nc(O)c(Cc2ccc3nc(C)ccc3c2)c2cc(OC)c(OC)cc12 [Compound 80, 6,7-dimethoxy-4-((2-methylquinolin-6-yl)methyl)-1-propylisoquinolin-3-ol dihydrochloride]
9.52 | CCCc1nc(O)c(Cc2cc3cc(OCC)c(F)cc3nc2NCC)c2cc(OC)c(OC)cc12 [Compound 86, 4-((6-Ethoxy-2-(ethylamino)-7-fluoroquinolin-3-yl)methyl)-6,7-dimethoxy-1-propylisoquinolin-3-ol dihydrochloride]
8.74 | CCCc1nc(O)c(Cc2cc3cc(OCC)ccc3nc2NCCNC(C)=O)c2cc(OC)c(OC)cc12 [Compound 88, N-(2-((6-ethoxy-3-((3-hydroxy-6,7-dimethoxy-1-propylisoquinolin-4-yl)methyl)quinolin-2-yl)amino)ethyl)acetamide dihydrochloride]

These compounds were tested against PDE4D3 (Homo sapiens (Human), UniProt Q08499) (assay: PDE4D3 inhibition (selectivity testing)). Conditions: not given.
Chain of PDE4D3 (Q08499 other isoform, or with tags, fused parts or gaps): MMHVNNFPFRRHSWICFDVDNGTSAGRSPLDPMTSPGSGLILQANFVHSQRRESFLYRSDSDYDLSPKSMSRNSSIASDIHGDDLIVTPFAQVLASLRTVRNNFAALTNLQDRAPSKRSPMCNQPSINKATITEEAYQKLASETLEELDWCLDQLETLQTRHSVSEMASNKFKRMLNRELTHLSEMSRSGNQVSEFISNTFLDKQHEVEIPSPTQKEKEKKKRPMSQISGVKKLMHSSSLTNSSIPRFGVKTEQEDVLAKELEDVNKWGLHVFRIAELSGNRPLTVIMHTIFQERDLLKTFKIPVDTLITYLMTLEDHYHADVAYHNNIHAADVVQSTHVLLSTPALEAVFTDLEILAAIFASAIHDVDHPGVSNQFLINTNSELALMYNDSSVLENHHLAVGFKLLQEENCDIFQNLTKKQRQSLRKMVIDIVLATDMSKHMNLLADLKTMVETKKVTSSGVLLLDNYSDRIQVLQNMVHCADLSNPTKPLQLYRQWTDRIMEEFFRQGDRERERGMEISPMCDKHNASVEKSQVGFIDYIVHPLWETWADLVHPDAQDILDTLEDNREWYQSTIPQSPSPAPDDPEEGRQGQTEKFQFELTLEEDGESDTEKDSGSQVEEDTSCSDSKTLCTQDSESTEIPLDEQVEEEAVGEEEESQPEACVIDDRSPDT
Type: biochemical
From the text: The compounds have also been tested for their activities on PDEs1-9 and PDE11.

pIC50 | Compound
9.05 | CCc1nc(O)c(Cc2ccc3oc4ccccc4c3c2)c2cc(OC)c(OC)cc12 [Compound 6, 4-(Dibenzo[b,d]furan-2-ylmethyl)-1-ethyl-6,7-dimethoxyisoquinolin-3-ol hydrochloride]
7.09 | CCc1nc(O)c(Cc2cnc3cc(OC)ccc3c2)c2cc(OC)c(OC)cc12 [Compound 31, 1-ethyl-6,7-dimethoxy-4-((7-methoxyquinolin-3-yl)methyl)isoquinolin-3-ol dihydrochloride]
6.55 | COc1ccc2nc(NCC(F)(F)F)c(Cc3c(O)nc(C(C)C)c4cc(OC)c(OC)cc34)cc2c1 [Compound 51, 1-isopropyl-6,7-dimethoxy-4-((6-methoxy-2-(2,2,2-trifluoroethylamino)quinolin-3-yl)methyl)isoquinolin-3-ol dihydrochloride]
